Test results reported in patent US8338039B2, “Fuel cell” (Sony Corporation, priority 2009, dated 2012).

How the values were obtained:
[1] = test system: anode having the enzyme catalyst (glucose dehydrogenase, diaphorase); experiment: Current generated by the enzyme-catalyst anode of the fuel cell with additive in the fuel solution; format: biochemical
Experimental: Tests were conducted under the following conditions to investigate how the plant essential oil added to the fuel solution affects the fuel cell performance. The plant essential oils used for the test are nutmeg oil, lemongrass oil, and palmarosa oil. The concentration of each plant essential oil in the fuel solution is 1%. The control substance is N,N-diethyl-m-toluamide (DEET), which is an active ingredient used for most insect repellent sprays. The concentration of DEET in the fuel solution is 1%. Incidentally, the concentration of DEET in the formulation is required to be less than 12% according to the Japanese regulation. The fuel solution is a pH buffer solution composed of 2.0 M imidazole/H2SO4, 0.4 M glucose, and ethanol, pH 7.0. […] The plant essential oil is added to the fuel solution and suspended therein by stirring immediately before current measurement. The electrode is one which is made of carbon fiber (1 mm thick). The electrode is coated with an immobilizing agent which is composed of the following ingredients. A mixture of 1.0 PLL and 0.0625 glutaraldehyde, 75.2 μL A solution of glucose dehydrogenase (150 mg/mL), 12.4 μL A solution of diaphorase (150 mg/mL), 1.6 μL A solution of NADH (40.96 mg/mL), 4 μL A solution of AQ2S (60 mM), 37.4 μL An enzyme produced by Amano Enzyme Co., Ltd. is immobilized on the above-mentioned immobilizing agent. […]

[2] = Dissolution of additive in the fuel solution; format: physicochemical; settings: fuel solution containing 1% ethanol; 1% DEET
Experimental: The fuel solution is a pH buffer solution composed of 2.0 M imidazole/H2SO4, 0.4 M glucose, and ethanol, pH 7.0. […] The plant essential oil is added to the fuel solution and suspended therein by stirring immediately before current measurement.

CCN(CC)C(=O)c1cccc(C)c1 [DEET, N,N-diethyl-m-toluamide]
current value produced by the enzymatic catalyst at the anode, compared with fuel solution not incorporated with the additive ([1]; 1% additive in fuel solution (2.0 M imidazole/H2SO4, 0.4 M glucose, ethanol, pH 7.0), carbon fiber anode): lower current value | effect on the fuel cell performance ([1]; added to the fuel solution at 1%): deteriorates the fuel cell performance | solubility in the fuel solution [2]: dissolves 1% DEET completely
